Like-named read-outs stand apart in the source and are kept apart here.
Tests used:
MMP-14 = MMP-14 (Homo sapiens, UniProt P50281); details: isolated enzyme, fluorogenic substrate FS-1, literature value; cited from earlier work
MMP-2 [1] = molecular target: T1, MMP-2 (Homo sapiens, UniProt P08253); details: isolated enzyme, fluorogenic substrate FS-1, literature value; cited from earlier work
T1 sequence (P08253 110-660): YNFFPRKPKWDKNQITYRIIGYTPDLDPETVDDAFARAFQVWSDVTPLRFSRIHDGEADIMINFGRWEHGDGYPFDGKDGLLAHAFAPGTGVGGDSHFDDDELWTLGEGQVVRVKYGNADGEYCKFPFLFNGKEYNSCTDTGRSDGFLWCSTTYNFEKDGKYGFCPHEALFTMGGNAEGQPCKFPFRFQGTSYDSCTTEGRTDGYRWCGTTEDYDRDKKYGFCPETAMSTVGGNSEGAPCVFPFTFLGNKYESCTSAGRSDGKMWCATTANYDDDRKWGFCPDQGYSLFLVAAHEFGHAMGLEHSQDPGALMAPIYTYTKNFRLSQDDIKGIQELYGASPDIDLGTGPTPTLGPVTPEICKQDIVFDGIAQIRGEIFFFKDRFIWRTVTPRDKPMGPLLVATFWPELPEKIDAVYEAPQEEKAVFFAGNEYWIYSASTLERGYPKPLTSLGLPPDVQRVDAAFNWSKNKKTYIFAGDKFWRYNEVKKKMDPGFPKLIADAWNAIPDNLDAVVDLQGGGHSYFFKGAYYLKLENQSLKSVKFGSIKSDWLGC

MMP-9 = molecular target: T2, MMP-9 (Homo sapiens, UniProt P14780); experiment: MMP inhibition assay, fluorogenic substrate FS-6; type: biochemical; details: MMP-9 2.7 nM, inhibitor incubated 4 h at 25° C., substrate Mca-Lys-Pro-Leu-Gly-Leu-Dap(Dnp)-Ala-Arg-NH2 2 μM
T2 construct: purchased supplied by Prof; Gillian Murphy (Department of Oncology, University of Cambridge, UK); host or cells: transfected mouse myeloma cells
Description: (§1) As reported therein, the inhibitory activity of the compounds of the invention was evaluated on the known fluorogenic substrate (Mca-Lys-Pro-Leu-Gly-Leu-Dpa-Ala-Arg-NH2), shortly referred to as FS-6 (see, as a reference, U. Neumann, Analytical Biochem. 2004, 328, 166-173).
(§2) Recombinant human progelatinase A (pro-MMP-2) and B (pro-MMP-9) from transfected mouse myeloma cells, MMP-16 and MMP-14 catalytic domains were supplied by Prof. Gillian Murphy (Department of Oncology, University of Cambridge, UK). Pro-MMP-1, pro-MMP-8, pro-MMP-3 and pro-MMP-13 were purchased from Calbiochem, MMP-12 was furnished from RDSystems.
(§3) Pro-MMP-3 was activated with trypsin 5 μg/mL for 30 min at 37 C.° followed by soybean trypsin inhibitor (SBTI) 62 μg/mL.
(§4) For assay measurements, the inhibitor stock solutions (DMSO, 100 mM) were further diluted, at 7 different concentrations (0.01 nM-300 μM) for each MMP in the fluorimetric assay buffer (FAB: Tris 50 mM, pH=7.5, NaCl 150 mM, CaCl2 10 mM, Brij 35 0.05% and DMSO 1%). Activated enzyme (final concentration 2.9 nM for MMP-2, 2.7 nM for MMP-9, 1.5 nM for MMP-8, 0.3 nM for MMP-13, 5 nM for MMP-3, 1 nM for MMP-14cd, 15 nM for MMP-16cd and 2.0 nM for MMP-1, 1 nM for MMP12) and inhibitor solutions were incubated in the assay buffer for 4 h at 25° C. After the addition of 200 μM solution of the fluorogenic substrate Mca-Arg-Pro-Lys-Pro-Val-Glu-Nva-Trp-Arg-Lys(Dnp)-NH2 (Sigma) for MMP-3 and Mca-Lys-Pro-Leu-Gly-Leu-Dap(Dnp)-Ala-Arg-NH2 (Bachem) (Neumann, U.; Kubota, H.; Frei, K.; Ganu, V.; Leppert, D. Anal. Biochem. 2004, 328, 166) for all the other enzymes in DMSO (final concentration 2 μM), the hydrolysis was monitored every 15 sec. for 20 min. recording the increase in fluorescence (λex=325 nm, λem=395 nm) using a Molecular Device SpectraMax Gemini XS plate reader. The assays were performed in triplicate in a total volume of 200 μl per well in 96-well microtitre plates (Corning, black, NBS). Control wells lack inhibitor. The MMP inhibition activity was expressed in relative fluorescent units (RFU). Percent of inhibition was calculated from control reactions without the inhibitor. IC50 was determined using the formula: Vi/Vo=1/(1+[I]/IC50), where Vi is the initial velocity of substrate cleavage in the presence of the inhibitor at concentration [I] and Vo is the initial velocity in the absence of the inhibitor. Results were analyzed using SoftMax Pro software and GraFit software.

MMP-8 = molecular target: T3, MMP-8 (Homo sapiens, UniProt P22894); experiment: MMP inhibition assay, fluorogenic substrate FS-6; type: biochemical; details: MMP-8 1.5 nM, inhibitor incubated 4 h at 25° C., substrate Mca-Lys-Pro-Leu-Gly-Leu-Dap(Dnp)-Ala-Arg-NH2 2 μM
T3 construct: purchased Calbiochem
Description: as §1, §2, §3, §4

MMP-12 = molecular target: T4, MMP-12 (Homo sapiens, UniProt P39900); experiment: MMP inhibition assay, fluorogenic substrate FS-6; type: biochemical; details: MMP12 1 nM, inhibitor incubated 4 h at 25° C., substrate Mca-Lys-Pro-Leu-Gly-Leu-Dap(Dnp)-Ala-Arg-NH2 2 μM
T4 construct: purchased RDSystems
Description: as §1, §2, §4

MMP-16 catalytic domain = molecular target: T5, MMP-16 catalytic domain (Homo sapiens, UniProt P51512); experiment: MMP inhibition assay, fluorogenic substrate FS-6; type: biochemical; details: MMP-16cd 15 nM, inhibitor incubated 4 h at 25° C., substrate Mca-Lys-Pro-Leu-Gly-Leu-Dap(Dnp)-Ala-Arg-NH2 2 μM
T5 construct: MMP-16 and MMP-14 catalytic domains were supplied by Prof; Gillian Murphy; purchased supplied by Prof; Gillian Murphy (Department of Oncology, University of Cambridge, UK)
Description: as §1, §2, §4

MMP-3 = molecular target: T6, MMP-3 (Homo sapiens, UniProt P08254); experiment: MMP inhibition assay, fluorogenic substrate; type: biochemical; details: MMP-3 5 nM, inhibitor incubated 4 h at 25° C., substrate Mca-Arg-Pro-Lys-Pro-Val-Glu-Nva-Trp-Arg-Lys(Dnp)-NH2
T6 construct: purchased Calbiochem
Description: as §2, §3
as §4, with “The MMP inhibition activity was expressed in relative fluorescent units (RFU).” left out

MMP-13 = MMP-13 (Homo sapiens, UniProt P45452); experiment: MMP inhibition assay, fluorogenic substrate FS-6; type: biochemical; details: MMP-13 0.3 nM, inhibitor incubated 4 h at 25° C., substrate Mca-Lys-Pro-Leu-Gly-Leu-Dap(Dnp)-Ala-Arg-NH2 2 μM
Description: as §1, §2, §3, §4

MMP-2 [2] = molecular target: T1, MMP-2; experiment: MMP inhibition assay, fluorogenic substrate FS-6; type: biochemical; set-up: purchased supplied by Prof; Gillian Murphy (Department of Oncology, University of Cambridge, UK); host or cells: transfected mouse myeloma cells; details: activated pro-MMP-2 2.9 nM, inhibitor incubated 4 h at 25° C., substrate Mca-Lys-Pro-Leu-Gly-Leu-Dap(Dnp)-Ala-Arg-NH2 2 μM
Description: as §1, §2, §3, §4

MMP-14 catalytic domain = molecular target: T7, MMP-14 catalytic domain (Homo sapiens, UniProt P50281); experiment: MMP inhibition assay, fluorogenic substrate FS-6; type: biochemical; details: MMP-14cd 1 nM, inhibitor incubated 4 h at 25° C., substrate Mca-Lys-Pro-Leu-Gly-Leu-Dap(Dnp)-Ala-Arg-NH2 2 μM
T7 construct: MMP-16 and MMP-14 catalytic domains were supplied by Prof; Gillian Murphy; purchased supplied by Prof; Gillian Murphy (Department of Oncology, University of Cambridge, UK)
Description: as §1, §2, §4

T4 sequence (P39900 106-470): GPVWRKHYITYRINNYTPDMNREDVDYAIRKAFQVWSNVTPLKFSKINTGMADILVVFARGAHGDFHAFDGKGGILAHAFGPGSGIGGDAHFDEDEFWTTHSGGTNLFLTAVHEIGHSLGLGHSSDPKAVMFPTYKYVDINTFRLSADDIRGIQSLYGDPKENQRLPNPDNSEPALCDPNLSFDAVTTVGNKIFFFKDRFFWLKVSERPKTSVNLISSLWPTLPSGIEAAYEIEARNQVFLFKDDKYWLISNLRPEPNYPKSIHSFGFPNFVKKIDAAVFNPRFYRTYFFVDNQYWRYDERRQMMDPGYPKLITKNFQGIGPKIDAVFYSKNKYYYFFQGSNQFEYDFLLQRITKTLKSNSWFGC
T2 sequence (P14780 107-707 limits assumed): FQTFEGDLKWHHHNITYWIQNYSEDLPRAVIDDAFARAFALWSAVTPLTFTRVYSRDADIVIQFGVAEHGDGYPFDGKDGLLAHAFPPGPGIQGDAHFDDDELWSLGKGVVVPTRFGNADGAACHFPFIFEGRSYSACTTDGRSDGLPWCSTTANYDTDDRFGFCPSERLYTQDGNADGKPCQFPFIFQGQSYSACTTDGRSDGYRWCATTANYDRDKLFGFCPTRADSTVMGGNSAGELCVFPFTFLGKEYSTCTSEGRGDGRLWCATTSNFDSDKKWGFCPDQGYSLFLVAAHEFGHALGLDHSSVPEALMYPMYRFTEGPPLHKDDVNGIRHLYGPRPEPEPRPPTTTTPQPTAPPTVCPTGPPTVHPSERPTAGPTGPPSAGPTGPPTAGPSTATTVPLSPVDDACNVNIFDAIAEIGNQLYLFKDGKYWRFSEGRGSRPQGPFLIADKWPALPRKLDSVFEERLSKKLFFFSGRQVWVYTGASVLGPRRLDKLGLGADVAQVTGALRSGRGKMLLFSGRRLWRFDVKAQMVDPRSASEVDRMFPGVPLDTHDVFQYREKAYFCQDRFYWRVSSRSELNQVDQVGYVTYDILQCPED
T6 sequence (P08254 100-477): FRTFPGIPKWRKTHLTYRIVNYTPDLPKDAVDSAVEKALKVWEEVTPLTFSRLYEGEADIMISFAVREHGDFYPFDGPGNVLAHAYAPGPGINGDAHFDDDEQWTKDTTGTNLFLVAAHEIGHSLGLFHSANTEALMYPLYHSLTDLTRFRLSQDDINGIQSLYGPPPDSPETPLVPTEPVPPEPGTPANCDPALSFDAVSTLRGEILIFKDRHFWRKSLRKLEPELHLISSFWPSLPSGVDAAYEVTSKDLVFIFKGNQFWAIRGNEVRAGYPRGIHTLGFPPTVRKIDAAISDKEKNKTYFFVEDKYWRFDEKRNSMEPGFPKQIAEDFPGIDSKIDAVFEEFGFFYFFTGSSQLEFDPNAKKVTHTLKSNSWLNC
T5 sequence (P51512 120-292 limits assumed): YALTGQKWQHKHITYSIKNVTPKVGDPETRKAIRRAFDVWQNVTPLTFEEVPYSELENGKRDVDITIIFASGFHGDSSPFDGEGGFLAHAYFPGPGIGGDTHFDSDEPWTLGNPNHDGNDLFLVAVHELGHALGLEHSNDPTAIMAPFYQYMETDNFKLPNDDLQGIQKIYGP
T3 sequence (P22894 101-467): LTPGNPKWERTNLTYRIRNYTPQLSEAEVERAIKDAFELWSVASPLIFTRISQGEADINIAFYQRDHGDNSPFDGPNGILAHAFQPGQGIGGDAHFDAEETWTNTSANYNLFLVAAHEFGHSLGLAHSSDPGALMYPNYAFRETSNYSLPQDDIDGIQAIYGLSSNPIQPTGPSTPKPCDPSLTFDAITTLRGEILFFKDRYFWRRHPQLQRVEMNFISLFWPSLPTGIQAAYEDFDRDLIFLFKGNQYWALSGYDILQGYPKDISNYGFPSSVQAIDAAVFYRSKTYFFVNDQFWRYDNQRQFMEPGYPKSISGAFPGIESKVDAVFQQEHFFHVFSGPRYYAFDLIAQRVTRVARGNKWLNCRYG

SMILES | IC50 (MMP-9) | IC50 (MMP-8) | IC50 (MMP-12) | IC50 (MMP-16 catalytic domain) | IC50 (MMP-3) | IC50 (MMP-13) | IC50 (MMP-2 [2]) | IC50 (MMP-14 catalytic domain) | IC50 (MMP-14) | IC50 (MMP-2 [1])
CC(C)ON(C(CCNC(=O)OCc1ccccc1)C(=O)NO)S(=O)(=O)c1ccc(-c2ccccc2)cc1 (centres unmarked) [compound (5b)] |  |  |  |  |  |  |  |  | 7.7 nM | 0.41 nM
CC[N+]1=C(/C=C/C=C/C=C2/N(CCCCCC(=O)NCC[C@H](C(=O)NO)N(OC(C)C)S(=O)(=O)c3ccc(-c4ccc(OC)cc4)cc3)c3ccc4c(S(=O)(=O)O)cc(S(=O)(=O)O)cc4c3C2(C)C)C(C)(C)c2c1ccc1c(S(=O)(=O)[O-])cc(S(=O)(=O)O)cc21 [Compound 5] |  |  |  |  |  | 82 ± 13 nM | 56 ± 8 nM |  |  | 

Continued, in another order:

IC50 (MMP-9) | IC50 (MMP-8) | IC50 (MMP-12) | IC50 (MMP-16 catalytic domain) | IC50 (MMP-3) | IC50 (MMP-13) | IC50 (MMP-2 [2]) | IC50 (MMP-14 catalytic domain) | SMILES | IC50 (MMP-14) | IC50 (MMP-2 [1])
1.7 ± 0.14 nM | 3.2 ± 0.2 nM | 0.4 ± 0.05 nM | 10 ± 1 nM | 39 ± 3.3 nM |  |  |  | COc1ccc(-c2ccc(S(=O)(=O)N(OCCOCCN3CCNCC3)[C@H](CCNC(=O)OCc3ccccc3)C(=O)NO)cc2)cc1 [1j] |  | 
3.3 ± 0.1 nM | 6.5 ± 0.6 nM | 0.67 ± 0.06 nM | 30 ± 2.3 nM | 53 ± 4.5 nM | 0.17 ± 0.02 nM | 0.6 ± 0.06 nM | 67 ± 3.4 nM | CC[N+]1=C(/C=C/C=C/C=C2/N(CCCCCC(=O)N3CCN(CCOCCON([C@H](CCNC(=O)OCc4ccccc4)C(=O)NO)S(=O)(=O)c4ccc(-c5ccc(OC)cc5)cc4)CC3)c3ccc4c(S(=O)(=O)O)cc(S(=O)(=O)O)cc4c3C2(C)C)C(C)(C)c2c1ccc1c(S(=O)(=O)[O-])cc(S(=O)(=O)O)cc21 [Compound 6b] |  | 
187 ± 11 nM |  | 22 ± 4 nM | 1260 ± 59 nM | 1990 ± 90 nM | 24.4 ± 2.5 nM | 47.9 ± 4.9 nM | 1700 ± 305 nM | CCC(=O)N1CCN(CCOCCON([C@H](CCNC(=O)OCc2ccccc2)C(=O)NO)S(=O)(=O)c2ccc(-c3ccc(OC)cc3)cc2)CC1 [1k] |  | 
 |  |  |  |  | 50 ± 4.3 nM | 73.5 ± 5.7 nM |  | CC[N+]1=C(/C=C/C=C/C=C2\N(CCCCCC(=O)N3CCN(CCOCCON([C@H](CCNC(=O)OCc4ccccc4)C(=O)O)S(=O)(=O)c4ccc(-c5ccc(OC)cc5)cc4)CC3)c3ccc4c(S(=O)(=O)[O-])cc(S(=O)(=O)O)cc4c3C2(C)C)C(C)(C)c2c1ccc1c(S(=O)(=O)O)cc(S(=O)(=O)O)cc21 [Compound 6a] |  | 

— patent US9480758B2, “Diagnostic agents selective against metalloproteases” (BRACCO IMAGING S.P.A., priority 2008, dated 2016)
